# Reference: US20240180900A1, “COMPOUNDS AND METHODS FOR THE TARGETED DEGRADATION OF ANDROGEN RECEPTOR” (Arvinas Operations, Inc., priority 2022, published 2024)
# Where two headings read alike, the source gives them in different places.
# Columns and labels:
# [1] = target: T1, AR (LNCaP cells, AR mutation T878A) (Homo sapiens, UniProt P10275, T878A); experiment: AR degradation assay in LNCaP cells; type: cell-based; conditions: 24 hours of treatment
# T1 construct: endogenous in cells; host or cells: LNCaP
# T1 sequence (P10275 whole entry T878A): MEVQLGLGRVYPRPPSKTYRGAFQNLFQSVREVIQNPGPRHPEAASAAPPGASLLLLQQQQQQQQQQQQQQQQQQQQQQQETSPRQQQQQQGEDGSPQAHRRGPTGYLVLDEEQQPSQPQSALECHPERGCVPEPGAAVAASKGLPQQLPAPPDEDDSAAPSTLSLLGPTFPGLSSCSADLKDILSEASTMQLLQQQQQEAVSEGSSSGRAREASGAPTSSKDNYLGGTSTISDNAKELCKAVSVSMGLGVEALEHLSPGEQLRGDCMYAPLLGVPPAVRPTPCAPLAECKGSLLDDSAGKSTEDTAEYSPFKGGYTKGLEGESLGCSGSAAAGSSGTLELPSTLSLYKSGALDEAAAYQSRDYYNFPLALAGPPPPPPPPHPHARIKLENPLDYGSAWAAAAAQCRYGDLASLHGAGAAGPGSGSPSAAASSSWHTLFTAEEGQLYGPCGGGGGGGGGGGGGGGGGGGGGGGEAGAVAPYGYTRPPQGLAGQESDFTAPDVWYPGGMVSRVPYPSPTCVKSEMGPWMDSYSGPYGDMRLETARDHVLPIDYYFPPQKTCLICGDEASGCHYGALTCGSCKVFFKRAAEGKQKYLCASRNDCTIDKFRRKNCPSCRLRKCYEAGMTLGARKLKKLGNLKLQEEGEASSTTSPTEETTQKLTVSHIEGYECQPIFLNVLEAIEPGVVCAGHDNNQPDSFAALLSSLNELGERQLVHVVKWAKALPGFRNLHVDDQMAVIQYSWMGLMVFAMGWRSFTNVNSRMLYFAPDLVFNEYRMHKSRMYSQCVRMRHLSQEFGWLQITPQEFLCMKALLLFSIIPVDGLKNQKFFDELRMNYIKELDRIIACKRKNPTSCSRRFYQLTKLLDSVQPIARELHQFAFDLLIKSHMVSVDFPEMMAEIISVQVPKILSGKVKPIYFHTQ
# Protocol: FIG. 2 is an analysis of Compound A in in vitro AR degradation assays conducted in VCaP cells and LNCaP cancer cells that harbor AR amplification and the AR mutation (T878A) mutation, respectively.
# To determine the pharmacological effect of Compound A in vitro, AR degradation assays were conducted in VCaP (vertebral-cancer of the prostate) cancer cells and LNCaP (lymph node carcinoma of the prostate) cancer cells that harbor AR amplification and the AR mutation (T878A) mutation, respectively.
# To determine the pharmacological effect of Compound A in vitro, AR degradation assays were conducted in VCaP cells and LNCaP prostate cancer cells that harbor AR amplification and the AR mutation (T878A) mutation, respectively.
# AR S889G = target: T2, AR S889G (Homo sapiens, UniProt P10275, S889G); experiment: AR degradation in T-Rex-293 cell line, S889G; type: cell-based; conditions: T-Rex-293, ELISA
# T2 construct: expressed in transfected cells; host or cells: T-REx-293
# T2 sequence (P10275 whole entry S889G): as the sequence (P10275 whole entry T878A) above, with A878T, S889G counted along it
# Source text: (§1) FIG. 3 is a graph showing Compound A's ability to degrade clinically relevant mutated forms AR.
# (§2) To assess the ability of Compound A to degrade variants of the AR, vectors expressing wild-type AR or mutant AR proteins harboring clinically observed mutations in the ligand binding domain (13 with single amino acid changes or 4 with 2 amino acid changes) (Azad A. A., Volik S. V., Wyatt A. W., et al. Androgen receptor gene aberrations in circulating cell-free DNA: biomarkers of therapeutic resistance in castration-resistant prostate cancer. Clin Cancer Res. 2015; 21:2315-2324; Robinson D., Van Allen E. M., Wu Y. M., et al. Integrative clinical genomics of advanced prostate cancer. Cell. 2015; 161:1215-1228; Ledet E. M., Lilly M. B., Sonpavde G., et al. Comprehensive analysis of AR alterations in circulating tumor DNA from patients with advanced prostate cancer. Oncologist.
# AR T878A/S889G = target: T3, AR T878A/S889G (Homo sapiens, UniProt P10275, S889G/T878A); experiment: AR degradation in T-Rex-293 cell line, T878A/S889G; type: cell-based; conditions: T-Rex-293, ELISA
# T3 construct: expressed in transfected cells; host or cells: T-REx-293
# T3 sequence (P10275 whole entry T878A/S889G): as the sequence (P10275 whole entry T878A) above, with S889G counted along it
# Source text: as §1, §2
# [2] = preliminary PK in mCRPC participants (Phase 1/2); type: in vivo, human
# Protocol: A chiral bioanalytical method by LC-MS/MS has been developed to characterize the PK of Compound A. Pharmacokinetic analyses were performed using noncompartmental analysis methods.
# Mean steady state peak/trough ratio is less than 2, which indicates minimal fluctuation in plasma concentrations once steady state is achieved. Steady state occurs within 3 weeks into treatment.
# An ongoing, open-label, Phase 1/2 study in male participants with mCRPC. The Phase 1 dose escalation investigated Compound A doses of 20 mg, 40 mg, 80 mg, 100 mg, 160 mg, 200 mg, 320 mg, 400 mg, 480 mg, and 500 mg administered QD. […] Doses of 100 mg QD and 300 mg QD were selected for the Phase 2 cohort expansion.
# [3] = Compound A in clinical setting: treatment-related adverse events; type: in vivo, human; conditions: TRAEs, n = 84
# [4] = safety in healthy volunteers (food/PPI study)
# Source text: The primary endpoints were AUCinf and Cmax. Additional parameters measured included AUClast and Tmax.
# The study consisted of 2 independent cohorts: an open-label, randomized, 2-period, crossover Fed/Fasted Cohort to determine food effects; and an open-label, 2-period, fixed sequence PPI Cohort to evaluate interactions with esomeprazole.
# [5] = Fed/Fasted Cohort, 200 mg, 14 healthy participants
# [6] = healthy volunteer study, both cohorts
smiles,measurement,setting,value
"COc1cc(O[C@H]2C(C)(C)[C@H](NC(=O)c3ccc(N4CCC(CN5CCN(c6ccc(C(=O)N[C@H]7CCC(=O)NC7=O)c(F)c6)CC5)CC4)cc3)C2(C)C)ccc1C#N [Compound A, 4-(4-((1-(4-(((1R,3R)-3-(4-cyano-3-methoxyphenoxy)-2,2,4,4-tetramethylcyclobutyl)carbamoyl)phenyl)piperidin-4-yl)methyl)piperazin-1-yl)-N—((S)-2,6-dioxopiperidin-3-yl)-2-fluorobenzamide]",DC50,[1],≤ 1.3 nM
same,Dmax,[1],≥ 91%
same,DC50,AR S889G,3.1 nM
same,DC50,AR T878A/S889G,3.6 nM
same,Mean steady state peak/trough ratio,[2]; QD dosing,less than 2
same,time to steady state,[2]; QD dosing,≤ 3 weeks
same,AUC(0-t),"[2]; human, plasma, oral, 20 mg, 20 mg QD, individual value (n = 1), read-out: AUC0-24 Day 1",178 ng·h/mL
same,AUC(0-t),"[2]; human, plasma, oral, 20 mg, 20 mg QD, individual value (n = 1), read-out: AUC0-24 Day 21",997 ng·h/mL
same,Cmax,"[2]; human, plasma, oral, 20 mg, 20 mg QD, individual value (n = 1), read-out: Cmax Day 1",11.1 ng/mL
same,Cmax,"[2]; human, plasma, oral, 20 mg, 20 mg QD, individual value (n = 1), read-out: Cmax Day 21",44.1 ng/mL
same,AUC(0-t),"[2]; human, plasma, oral, 40 mg, 40 mg QD, individual value (n = 1), read-out: AUC0-24 Day 1",314 ng·h/mL
same,AUC(0-t),"[2]; human, plasma, oral, 40 mg, 40 mg QD, individual value (n = 1), read-out: AUC0-24 Day 21",1300 ng·h/mL
same,Cmax,"[2]; human, plasma, oral, 40 mg, 40 mg QD, individual value (n = 1), read-out: Cmax Day 1",19.1 ng/mL
same,Cmax,"[2]; human, plasma, oral, 40 mg, 40 mg QD, individual value (n = 1), read-out: Cmax Day 21",60.3 ng/mL
same,AUC(0-t),"[2]; human, plasma, oral, 80 mg, 80 mg QD, individual value (n = 1), read-out: AUC0-24 Day 1",432 ng·h/mL
same,AUC(0-t),"[2]; human, plasma, oral, 80 mg, 80 mg QD, individual value (n = 1), read-out: AUC0-24 Day 21",3110 ng·h/mL
same,Cmax,"[2]; human, plasma, oral, 80 mg, 80 mg QD, individual value (n = 1), read-out: Cmax Day 1",22.2 ng/mL
same,Cmax,"[2]; human, plasma, oral, 80 mg, 80 mg QD, individual value (n = 1), read-out: Cmax Day 21",139 ng/mL
same,AUC(0-t),"[2]; male, human, plasma, oral, 100 mg, 100 mg QD (N=6), Cycle 1 Day 21, read-out: mean steady-state AUC0-24",4610 ng·h/mL
same,AUC(0-t),"[2]; male, human, plasma, oral, 100 mg, 100 mg QD, Mean (CV %), read-out: AUC0-24 Day 1",816 ng·h/mL
same,AUC(0-t),"[2]; male, human, plasma, oral, 100 mg, 100 mg QD, Mean (CV %), read-out: AUC0-24 Day 21",4610 ng·h/mL
same,Cmax,"[2]; male, human, plasma, oral, 100 mg, 100 mg QD, Mean (CV %), read-out: Cmax Day 1",45.1 ng/mL
same,Cmax,"[2]; male, human, plasma, oral, 100 mg, 100 mg QD, Mean (CV %), read-out: Cmax Day 21",233 ng/mL
same,AUC(0-t),"[2]; male, human, plasma, oral, 160 mg, 160 mg QD, Mean (CV %), read-out: AUC0-24 Day 1",2050 ng·h/mL
same,AUC(0-t),"[2]; male, human, plasma, oral, 160 mg, 160 mg QD, Mean (CV %), read-out: AUC0-24 Day 21",8450 ng·h/mL
same,Cmax,"[2]; male, human, plasma, oral, 160 mg, 160 mg QD, Mean (CV %), read-out: Cmax Day 1",125 ng/mL
same,Cmax,"[2]; male, human, plasma, oral, 160 mg, 160 mg QD, Mean (CV %), read-out: Cmax Day 21",445 ng/mL
same,AUC(0-t),"[2]; male, human, plasma, oral, 200 mg, 200 mg QD, Mean (CV %), read-out: AUC0-24 Day 1",1830 ng·h/mL
same,AUC(0-t),"[2]; male, human, plasma, oral, 200 mg, 200 mg QD, Mean (CV %), read-out: AUC0-24 Day 21",11500 ng·h/mL
same,Cmax,"[2]; male, human, plasma, oral, 200 mg, 200 mg QD, Mean (CV %), read-out: Cmax Day 1",110 ng/mL
same,Cmax,"[2]; male, human, plasma, oral, 200 mg, 200 mg QD, Mean (CV %), read-out: Cmax Day 21",559 ng/mL
same,AUC(0-t),"[2]; male, human, plasma, oral, 300 mg, 300 mg QD, Mean (CV %), read-out: AUC0-24 Day 1",2220 ng·h/mL
same,AUC(0-t),"[2]; male, human, plasma, oral, 300 mg, 300 mg QD, Mean (CV %), read-out: AUC0-24 Day 21",14900 ng·h/mL
same,Cmax,"[2]; male, human, plasma, oral, 300 mg, 300 mg QD, Mean (CV %), read-out: Cmax Day 1",119 ng/mL
same,Cmax,"[2]; male, human, plasma, oral, 300 mg, 300 mg QD, Mean (CV %), read-out: Cmax Day 21",672 ng/mL
same,AUC(0-t),"[2]; male, human, plasma, oral, 320 mg, 320 mg QD, Mean (CV %), read-out: AUC0-24 Day 1",3990 ng·h/mL
same,AUC(0-t),"[2]; male, human, plasma, oral, 320 mg, 320 mg QD, Mean (CV %), read-out: AUC0-24 Day 21",23100 ng·h/mL
same,Cmax,"[2]; male, human, plasma, oral, 320 mg, 320 mg QD, Mean (CV %), read-out: Cmax Day 1",223 ng/mL
same,Cmax,"[2]; male, human, plasma, oral, 320 mg, 320 mg QD, Mean (CV %), read-out: Cmax Day 21",1070 ng/mL
same,AUC(0-t),"[2]; male, human, plasma, oral, 400 mg, 400 mg QD, Mean (CV %), read-out: AUC0-24 Day 1",3350 ng·h/mL
same,AUC(0-t),"[2]; male, human, plasma, oral, 400 mg, 400 mg QD, Mean (CV %), read-out: AUC0-24 Day 21",11900 ng·h/mL
same,Cmax,"[2]; male, human, plasma, oral, 400 mg, 400 mg QD, Mean (CV %), read-out: Cmax Day 1",232 ng/mL
same,Cmax,"[2]; male, human, plasma, oral, 400 mg, 400 mg QD, Mean (CV %), read-out: Cmax Day 21",526 ng/mL
same,AUC(0-t),"[2]; male, human, plasma, oral, 480 mg, 480 mg QD, Mean (CV %), read-out: AUC0-24 Day 1",2540 ng·h/mL
same,AUC(0-t),"[2]; male, human, plasma, oral, 480 mg, 480 mg QD, Mean (CV %), read-out: AUC0-24 Day 21",12900 ng·h/mL
same,Cmax,"[2]; male, human, plasma, oral, 480 mg, 480 mg QD, Mean (CV %), read-out: Cmax Day 1",145 ng/mL
same,Cmax,"[2]; male, human, plasma, oral, 480 mg, 480 mg QD, Mean (CV %), read-out: Cmax Day 21",644 ng/mL
same,AUC(0-t),"[2]; male, human, plasma, oral, 500 mg, 500 mg QD, Mean (CV %), read-out: AUC0-24 Day 1",3590 ng·h/mL
same,AUC(0-t),"[2]; male, human, plasma, oral, 500 mg, 500 mg QD, Mean (CV %), read-out: AUC0-24 Day 21",15000 ng·h/mL
same,Cmax,"[2]; male, human, plasma, oral, 500 mg, 500 mg QD, Mean (CV %), read-out: Cmax Day 1",203 ng/mL
same,Cmax,"[2]; male, human, plasma, oral, 500 mg, 500 mg QD, Mean (CV %), read-out: Cmax Day 21",703 ng/mL
same,half-life,"[2]; male, human, plasma, oral, QD dosing, mCRPC participants, read-out: effective mean T1/2",83 to 111 h
same,Tmax,"[2]; male, human, plasma, oral administration, mCRPC participants, read-out: median Tmax",~8 h
same,Alopecia: Any Grade,[3],8 n
same,Alopecia: Grade 3+,[3],0 (0) n (%)
same,Anemia: Any Grade,[3],3 n
same,Anemia: Grade 3+,[3],0 (0) n (%)
same,Any TRAE: Any Grade,[3],55 n
same,Any TRAE: Grade 3+,[3],7 (8) n (%)
same,Aspartate Aminotransferase increase: Any Grade,[3],6 n
same,Aspartate Aminotransferase increase: Grade 3+,[3],1 (1) n (%)
same,Decreased appetite: Any Grade,[3],9 n
same,Decreased appetite: Grade 3+,[3],0 (0) n (%)
same,Diarrhea: Any Grade,[3],9 n
same,Diarrhea: Grade 3+,[3],1 (1) n (%)
same,Fatigue: Any Grade,[3],24 n
same,Fatigue: Grade 3+,[3],2 (2) n (%)
same,Nausea: Any Grade,[3],12 n
same,Nausea: Grade 3+,[3],0 (0) n (%)
same,Vomiting: Any Grade,[3],9 n
same,Vomiting: Grade 3+,[3],0 (0) n (%)
same,Weight decrease: Any Grade,[3],1 n
same,Weight decrease: Grade 3+,[3],0 (0) n (%)
same,severity of TEAEs,[4]; Fed/Fasted Cohort,All TEAEs were Grade 1
same,headache (TEAE),[4]; [5],4 (28.6%) participants
same,participants reporting TEAEs,[4]; [5],5 (35.7%) participants
same,participants with at least one TEAE considered related to Compound A,[4]; [5],3 (21.4%) participants
same,TRAE dizziness,"[4]; Fed/Fasted Cohort, Grade 1",1 participant
same,TRAE fatigue,"[4]; Fed/Fasted Cohort, Grade 1",1 participant
same,TRAE headache,"[4]; Fed/Fasted Cohort, Grade 1",2 participants
same,TEAEs of Grade 3 or higher,[4]; PPI Cohort,no TEAEs of Grade 3 or higher
same,participants reporting TEAEs,"[4]; PPI Cohort, 300 mg, 16 healthy participants",8 (50.0%) participants
same,participants with Grade 2 events,"[4]; PPI Cohort, pain in the extremity and CRP increased",2 (12.5%) participants
same,tolerability of a single oral dose,"[4]; healthy male participants, fasting, fed, or with esomeprazole",generally well tolerated
same,"deaths, SAEs, discontinuations due to AEs",[4]; [6],"no deaths, SAEs, or participant discontinuations due to AEs"
same,"laboratory results, vital signs, physical examinations, 12-lead ECGs, C-SSRS",[4]; [6],no clinically significant findings
